Measurements: PubChem BioAssay (NCI)
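Compound exposure: 48 hours, 5 concentrations, 96-well plates. TGI is the concentration that stops growth completely.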

These molecules were tested on NCI-H460 lung (assay: inhibition of tumour cell growth, NCI panel, 48 h).

Row | Compound | TGI [µM]
1 | Cc1ccc(S(=O)(=O)c2[nH]cc(/C(=C\C3CCCCC3)[N+](=O)[O-])c2C2CCCCC2)cc1 | 2.99
2 | Nc1ccc2c(c1)C(=O)N1CCC[C@H]1C(=O)N2 | > 100
3 | CO/N=C(\C(=O)OC(=NC1CCCCC1)NC1CCCCC1)c1csc(NC(c2ccccc2)(c2ccccc2)c2ccccc2)n1 | > 10
4 | CC1(C)C(C#N)C1C1=C(N2CCOCC2)[C@]2(C)C(OC(=O)c3ccccc3)CC[C@@H]2C1 (some centres undefined) | > 100
5 | CO[C@@]12C[C@@H](C)C3=CCC(C)=C3CC1=C(C)C(=O)O2 | > 100
6 | N=C(N)C1CN(CCc2c[nH]c3ccccc23)C(=O)NC1=O (centres undefined) | > 100
7 | Cn1c(=O)c2c(ncn2CCNC(CO)C(O)c2ccc([N+](=O)[O-])cc2)n(C)c1=O (centres undefined) | > 100
8 | CCCNC(=O)NNC(=O)c1c[nH]c2nc(C)ccc2c1=O | > 100
9 | C=CCCON(C(=O)OC(C)(C)C)C(C)(C)C | > 100
10 | NC(N)=NS(=O)(=O)c1ccc(NNc2c3ccccc3nc3c(C(=O)Nc4ccc(S(=O)(=O)Nc5ncccn5)cc4)cccc23)cc1 | > 100
11 | O=c1oc2ccccc2cc1-c1cc2ccccn2c1 | > 100
12 | CC(=O)CCn1c(=S)sc2ccccc21 | > 100
13 | CC1CC(OP(=O)(OCc2ccccc2)OCc2ccccc2)[C@@H](OCc2ccccc2)C(OCc2ccccc2)C1OCc1ccccc1 (some centres undefined) | > 100
14 | CCO/C(O)=C(/C(=N)N1CCOCC1)C(=O)Nc1ccc(F)cc1 | > 100
15 | C[C@H]1[C@H]2[C@H]3CC[C@@H]4[C@@]5(C)CC[C@H](O)C(C)(C)[C@@H]5CC[C@@]4(C)[C@]3(C)C[C@H](O)[C@@]2(C)C[C@H]2O[C@]21C | 40.1
16 | N#C[C@H](c1ccccn1)c1nc2ccccc2nc1Cl | > 100
17 | O=C1COc2cccnc2N1CCCCO | > 100
18 | O=C(O)CCCc1nc2c(n1Cc1ccccc1)C(=O)c1ccccc1C2=O | > 100
19 | CCOC(=O)NC(Nc1ccc(C)cc1)(C(F)(F)F)C(F)(F)F | > 100

The molecules below were run on M14 melanoma (assay: inhibition of tumour cell growth, NCI panel, 48 h).

Row | Compound | TGI [µM]
20 | Cc1ccc(S(=O)(=O)c2[nH]cc(/C(=C\C3CCCCC3)[N+](=O)[O-])c2C2CCCCC2)cc1 | 1.15
21 | Nc1ccc2c(c1)C(=O)N1CCC[C@H]1C(=O)N2 | > 100
22 | CO/N=C(\C(=O)OC(=NC1CCCCC1)NC1CCCCC1)c1csc(NC(c2ccccc2)(c2ccccc2)c2ccccc2)n1 | > 10
23 | CC1(C)C(C#N)C1C1=C(N2CCOCC2)[C@]2(C)C(OC(=O)c3ccccc3)CC[C@@H]2C1 (some centres undefined) | > 100
24 | N#Cc1n[nH]n(-c2ccc(Br)cc2)c1=O | > 100
25 | CO[C@@]12C[C@@H](C)C3=CCC(C)=C3CC1=C(C)C(=O)O2 | > 100
26 | N=C(N)C1CN(CCc2c[nH]c3ccccc23)C(=O)NC1=O (centres undefined) | > 100
27 | CC1(C)[C@@H](Cn2ccc(=O)[nH]c2=O)CC[C@@]1(C)CO | > 100
28 | Cn1c(=O)c2c(ncn2CCNC(CO)C(O)c2ccc([N+](=O)[O-])cc2)n(C)c1=O (centres undefined) | > 100
29 | CCCNC(=O)NNC(=O)c1c[nH]c2nc(C)ccc2c1=O | > 100
30 | C=CCCON(C(=O)OC(C)(C)C)C(C)(C)C | > 100
31 | NC(N)=NS(=O)(=O)c1ccc(NNc2c3ccccc3nc3c(C(=O)Nc4ccc(S(=O)(=O)Nc5ncccn5)cc4)cccc23)cc1 | 89.7
32 | O=c1oc2ccccc2cc1-c1cc2ccccn2c1 | > 100
33 | CC(=O)CCn1c(=S)sc2ccccc21 | > 100
34 | CC1CC(OP(=O)(OCc2ccccc2)OCc2ccccc2)[C@@H](OCc2ccccc2)C(OCc2ccccc2)C1OCc1ccccc1 (some centres undefined) | > 100
35 | CCO/C(O)=C(/C(=N)N1CCOCC1)C(=O)Nc1ccc(F)cc1 | > 100
36 | C[C@H]1[C@H]2[C@H]3CC[C@@H]4[C@@]5(C)CC[C@H](O)C(C)(C)[C@@H]5CC[C@@]4(C)[C@]3(C)C[C@H](O)[C@@]2(C)C[C@H]2O[C@]21C | 73.6
37 | N#C[C@H](c1ccccn1)c1nc2ccccc2nc1Cl | > 100
38 | O=C(O)CCCc1nc2c(n1Cc1ccccc1)C(=O)c1ccccc1C2=O | 20.6
39 | CCOC(=O)NC(Nc1ccc(C)cc1)(C(F)(F)F)C(F)(F)F | > 100

The molecules below were run on SK-OV-3 ovarian (assay: inhibition of tumour cell growth, NCI panel, 48 h).

Row | Compound | TGI [µM]
40 | Cc1ccc(S(=O)(=O)c2[nH]cc(/C(=C\C3CCCCC3)[N+](=O)[O-])c2C2CCCCC2)cc1 | > 26.9
41 | Nc1ccc2c(c1)C(=O)N1CCC[C@H]1C(=O)N2 | > 100
42 | CO/N=C(\C(=O)OC(=NC1CCCCC1)NC1CCCCC1)c1csc(NC(c2ccccc2)(c2ccccc2)c2ccccc2)n1 | > 10
43 | CC1(C)C(C#N)C1C1=C(N2CCOCC2)[C@]2(C)C(OC(=O)c3ccccc3)CC[C@@H]2C1 (some centres undefined) | > 100
44 | N#Cc1n[nH]n(-c2ccc(Br)cc2)c1=O | > 100
45 | CO[C@@]12C[C@@H](C)C3=CCC(C)=C3CC1=C(C)C(=O)O2 | > 100
46 | N=C(N)C1CN(CCc2c[nH]c3ccccc23)C(=O)NC1=O (centres undefined) | > 100
47 | CC1(C)[C@@H](Cn2ccc(=O)[nH]c2=O)CC[C@@]1(C)CO | > 100
48 | Cn1c(=O)c2c(ncn2CCNC(CO)C(O)c2ccc([N+](=O)[O-])cc2)n(C)c1=O (centres undefined) | > 100
49 | C=CCCON(C(=O)OC(C)(C)C)C(C)(C)C | > 100
50 | O=c1oc2ccccc2cc1-c1cc2ccccn2c1 | > 100
51 | CC(=O)CCn1c(=S)sc2ccccc21 | > 100
52 | CC1CC(OP(=O)(OCc2ccccc2)OCc2ccccc2)[C@@H](OCc2ccccc2)C(OCc2ccccc2)C1OCc1ccccc1 (some centres undefined) | > 100
53 | CCO/C(O)=C(/C(=N)N1CCOCC1)C(=O)Nc1ccc(F)cc1 | > 100
54 | C[C@H]1[C@H]2[C@H]3CC[C@@H]4[C@@]5(C)CC[C@H](O)C(C)(C)[C@@H]5CC[C@@]4(C)[C@]3(C)C[C@H](O)[C@@]2(C)C[C@H]2O[C@]21C | 39.3
55 | N#C[C@H](c1ccccn1)c1nc2ccccc2nc1Cl | > 100
56 | O=C1COc2cccnc2N1CCCCO | > 100
57 | O=C(O)CCCc1nc2c(n1Cc1ccccc1)C(=O)c1ccccc1C2=O | > 100
58 | CCOC(=O)NC(Nc1ccc(C)cc1)(C(F)(F)F)C(F)(F)F | > 100

These molecules were tested on HS 578T breast (assay: inhibition of tumour cell growth, NCI panel, 48 h).

Row | Compound | TGI [µM]
59 | CO/N=C(\C(=O)OC(=NC1CCCCC1)NC1CCCCC1)c1csc(NC(c2ccccc2)(c2ccccc2)c2ccccc2)n1 | > 10
60 | CC1(C)C(C#N)C1C1=C(N2CCOCC2)[C@]2(C)C(OC(=O)c3ccccc3)CC[C@@H]2C1 (some centres undefined) | > 100
61 | N#Cc1n[nH]n(-c2ccc(Br)cc2)c1=O | > 100
62 | CO[C@@]12C[C@@H](C)C3=CCC(C)=C3CC1=C(C)C(=O)O2 | > 100
63 | CC1(C)[C@@H](Cn2ccc(=O)[nH]c2=O)CC[C@@]1(C)CO | > 100
64 | CCCNC(=O)NNC(=O)c1c[nH]c2nc(C)ccc2c1=O | > 100
65 | C=CCCON(C(=O)OC(C)(C)C)C(C)(C)C | > 100
66 | O=c1oc2ccccc2cc1-c1cc2ccccn2c1 | > 100
67 | CC(=O)CCn1c(=S)sc2ccccc21 | > 100
68 | CC1CC(OP(=O)(OCc2ccccc2)OCc2ccccc2)[C@@H](OCc2ccccc2)C(OCc2ccccc2)C1OCc1ccccc1 (some centres undefined) | > 100
69 | CCO/C(O)=C(/C(=N)N1CCOCC1)C(=O)Nc1ccc(F)cc1 | > 100
70 | C[C@H]1[C@H]2[C@H]3CC[C@@H]4[C@@]5(C)CC[C@H](O)C(C)(C)[C@@H]5CC[C@@]4(C)[C@]3(C)C[C@H](O)[C@@]2(C)C[C@H]2O[C@]21C | 61
71 | N#C[C@H](c1ccccn1)c1nc2ccccc2nc1Cl | > 100
72 | O=C1COc2cccnc2N1CCCCO | > 100
73 | O=C(O)CCCc1nc2c(n1Cc1ccccc1)C(=O)c1ccccc1C2=O | > 100
74 | CCOC(=O)NC(Nc1ccc(C)cc1)(C(F)(F)F)C(F)(F)F | > 100

The molecules below were run on SR leukemia (assay: inhibition of tumour cell growth, NCI panel, 48 h).

Row | Compound | TGI [µM]
75 | Cc1ccc(S(=O)(=O)c2[nH]cc(/C(=C\C3CCCCC3)[N+](=O)[O-])c2C2CCCCC2)cc1 | 0.891
76 | Nc1ccc2c(c1)C(=O)N1CCC[C@H]1C(=O)N2 | > 100
77 | CO/N=C(\C(=O)OC(=NC1CCCCC1)NC1CCCCC1)c1csc(NC(c2ccccc2)(c2ccccc2)c2ccccc2)n1 | > 10
78 | CC1(C)C(C#N)C1C1=C(N2CCOCC2)[C@]2(C)C(OC(=O)c3ccccc3)CC[C@@H]2C1 (some centres undefined) | > 100
79 | CO[C@@]12C[C@@H](C)C3=CCC(C)=C3CC1=C(C)C(=O)O2 | > 100
80 | N=C(N)C1CN(CCc2c[nH]c3ccccc23)C(=O)NC1=O (centres undefined) | > 100
81 | Cn1c(=O)c2c(ncn2CCNC(CO)C(O)c2ccc([N+](=O)[O-])cc2)n(C)c1=O (centres undefined) | > 100
82 | CC1CC(OP(=O)(OCc2ccccc2)OCc2ccccc2)[C@@H](OCc2ccccc2)C(OCc2ccccc2)C1OCc1ccccc1 (some centres undefined) | > 100
83 | N#C[C@H](c1ccccn1)c1nc2ccccc2nc1Cl | > 100
84 | O=C1COc2cccnc2N1CCCCO | > 100
85 | O=C(O)CCCc1nc2c(n1Cc1ccccc1)C(=O)c1ccccc1C2=O | > 100

What follows are molecules tested on MDA-MB-435 (assay: inhibition of tumour cell growth, NCI panel, 48 h).

Row | Compound | TGI [µM]
86 | Cc1ccc(S(=O)(=O)c2[nH]cc(/C(=C\C3CCCCC3)[N+](=O)[O-])c2C2CCCCC2)cc1 | > 100
87 | Nc1ccc2c(c1)C(=O)N1CCC[C@H]1C(=O)N2 | > 100
88 | CC1(C)C(C#N)C1C1=C(N2CCOCC2)[C@]2(C)C(OC(=O)c3ccccc3)CC[C@@H]2C1 (some centres undefined) | > 100
89 | N#Cc1n[nH]n(-c2ccc(Br)cc2)c1=O | > 100
